Measured values reported in patent publication US10729636B2, “Compositions comprising peptide [sequence]” (NURITAS LIMITED, priority 2016, dated 2020).

Assays:
Assay type in all cases: cell-based
[1] = system: HACAT cells; assay: Cell proliferation assay (BrDu), HACAT; conditions: compared with untreated control, FIG. 2
Method: BrDu is incorporated into newly synthesised DNA strands of actively proliferating cells. Following partial denaturation of double stranded DNA, BrDu is detected immunochemically allowing the assessment of the population of cells which are synthesizing DNA.
Following the initial 24 h incubation the cells were incubated with 5 μg/ml, 0.5 μg/ml or 0.05 μg/ml synthetic peptide for 24 h respectively.
After 18 h incubation with synthetic peptides 20 μl BrDu reagent was added to each well. At 24 h incubation the cells were fixed and the amount of […] was measured using the BrdU Cell Proliferation Assay, all steps were carried out according to the manufacturer's instructions.
This experiment was then repeated using HACAT cells.

[2] = system: Human Dermal Fibroblasts (HDF); assay: Elastin production assay (ELISA); conditions: 5, 1 or 0.1 μg/ml, 96 h, compared with untreated control, FIG. 4
Method: Elastin is a highly elastic protein in connective tissue and allows many tissues in the body to resume their shape after stretching or contracting. […] Human Elastin ELISA kit assay is designed to measure Elastin in tissue or protein/peptide compositions.
Human Dermal Fibroblasts (HDF) were seeded in 24 well plates at 50,000 cells per well in DMEM containing 10% fetal calf serum (FCS), 1% Pen/strep, 1% L-glutamine and allowed to adhere for 24 h.
Following the initial 24 h incubation the cells were incubated with 5 μg/ml, 1 μg/ml or 0.1 μg/ml synthetic peptide for 96 h respectively.
After treatment, the cells were lysed using cell lysis buffer and sonicated for 10 seconds. The lysed cells were centrifuged and the supernatant was removed from each sample. Total protein concentration was determined using a BCA assay. Each sample was diluted in assay buffer to contain 10 μg total protein. 50 μl of each sample was then assayed using the […] Human Elastin ELISA kit. All steps were carried out according to the manufacturer's instructions.

[3] = system: AMPK pathway; assay: Phospho-AMPK alpha / Phospho-ACC / Phospho-Akt1 ELISA (mechanism of action); conditions: phospho-ELISAs on cell lysates; FIGS. 12-14
Method: This set of experiments was undertaken to understand the mechanism of action of a peptide of SEQ ID NO. 1.
Phospho-Acetyl-CoA Carboxylase (Ser79) Sandwich ELISA Kit is a solid phase sandwich enzyme-linked immunosorbent assay (ELISA) that detects endogenous levels of acetyl-CoA carboxylase (ACC) when phosphorylated at Ser79. A phospho-ACC (Ser79) rabbit antibody was coated onto the microwells. After incubation with cell lysates, phospho-ACC protein was captured by the coated antibody. Following extensive washing, an ACC mouse detection mAb was added to detect the captured ACC protein. Anti-mouse IgG, HRP-linked antibody was then used to recognize the bound detection antibody. […] The magnitude of the absorbance for the developed color was proportional to the quantity of ACC phosphorylated at Ser79.
Phospho-Akt1 (Ser473) Sandwich ELISA Kit is a solid phase sandwich enzyme-linked immunosorbent assay (ELISA) that detects endogenous levels of phospho-Akt1 (Ser473) protein. […] The magnitude of absorbance for this developed colour is proportional to the quantity of phospho-Akt1 (Ser473) protein.
Phospho-AMPKα (Thr172) Sandwich ELISA Kit is a solid phase sandwich enzyme-linked immunosorbent assay (ELISA) that detects endogenous levels of AMPKα when phosphorylated at Thr172. […] The magnitude of the absorbance for this developed colour was proportional to the quantity of AMPKα phosphorylated at Thr172. […]

[4] = system: HSkMC cells; assay: QPCR on specific genes of interest; conditions: 0.5 ug/ml, normalised by B2M, over control
Method: A volume of 2 ml of HSkMC cells were seeded in a 6 cm plate, pre-coated with collagen, at a concentration of 2×10^5 cells. Cells were allowed to adhere overnight at 37° C. 5% CO2 and the following day the growth media was replaced with 2 ml of cell differentiation media and returned to the incubator at 37° C. 5% CO2. The cell differentiation media was changed every 2 days for a period of 6 days, until the HSkMC cells were fully differentiated into myotubes. On day 7, the cell differentiation media was replaced with 2 ml of basal media and starved overnight at 37° C. 5% CO2.
On the day of the experiment, the starvation media was removed and replaced with 2 ml of basal media containing 0.5 ug/ml of SEQUENCE ID NO: 1. Untreated cells were run in parallel. The cells were incubated in this treatment for a period of 20 min at 37° C. 5% CO2, at which point the treatment media was removed and the cells were scraped in 1 ml of PBS. The cell suspension was pelleted in a microcentrifuge at 1500 rpm for 5 min, and the supernatant was removed. The cells were immediately flash frozen in liquid nitrogen and transferred to a −80° C. freezer for storage until dispatched to CROs.
Quantitative PCR was performed using a TaqMan probe based method, where target mRNA expression was quantified relative to the expression of the B2M housekeeping gene. A master mix containing primer/probe and Taqman® Gene Expression Master Mix (ABI Biosystems, CA, USA) was added to 1 μl of cDNA template. A final volume of 10 μl was pipetted into a well of a 96-well Lightcycler plate (Sarstedt, Nümbrecht, Germany) in duplicate and real time PCR was performed on a Roche Lightcycler 96 (Roche Diagnostics, Basal, Switzerland) real time thermal cycler. The threshold cycle (Ct) for each well was calculated using the instrument software. Data analysis was based on the ΔΔCt method with raw data normalised by the B2M housekeeping gene included on the plate. Results are expressed as fold change over control.
QPCR results (methods of treatment remains the same; concentration of SEQ ID 1 remains 0.5 ug/ml)

WKDEAGKPLVK [SEQ ID NO. 1]
cell proliferation [1]: increase | elastin production [2]: increase | mechanism of action (pathway) [3]: working through the AMPK pathway | Fold change ([4]; ACVR2B): 0.48 fold | Fold change ([4]; Adiponectin): 1.07 fold | Fold change ([4]; COX4I1): 0.85 fold | Fold change ([4]; FBXO32): 1.00 fold | Fold change ([4]; GLUT4): 1.95 fold | Fold change ([4]; HSPA2): 0.67 fold | Fold change ([4]; LEPR): 1.20 fold | Fold change ([4]; Leptin): 0.51 fold | Fold change ([4]; MSTN): 0.17 fold | Fold change ([4]; MYOG): 0.70 fold | Fold change ([4]; NRF1): 0.54 fold | Fold change ([4]; PPARGC1A): 0.69 fold | Fold change ([4]; PRKAG3): 0.35 fold | Fold change ([4]; SIRT): 0.41 fold | Fold change ([4]; TRIM63): 0.70 fold | Fold change ([4]; UQCRB): 2.56 fold
